Results: the supplement of paper PMC10307832

Legend:
Experiment in all cases: relative viability (nuclei count vs DMSO), 5 days (fraction); higher = more cells survive
[1] = compound: C1CSC2=C(C(=O)N1)SC3=C2C=C(C=C3)O [kb NB 142-70] + O=C(CCCCCCC(=O)Nc1ccccc1)NO [Vorinostat] (partner 1 µM)
How it was run: (§1)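 Relative viability equals treated-well nuclei counts divided by vehicle-well nuclei counts. Counts came from 4× images of lung cancer cell lines grown in 1536-well plates for 5 days after pin-tool dosing on the day after seeding. Dosing used one drug alone or a fixed anchor-drug dose plus five library-drug doses (not always all listed) in √10 steps, and values are medians of duplicate plates.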

[2] = compound: NCC(=O)Nc1ccc(-n2nc(C(F)(F)F)cc2-c2ccc3c(ccc4ccccc43)c2)cc1 + CCNC(=O)c1noc(-c2cc(C(C)C)c(O)cc2O)c1-c1ccc(CN2CCOCC2)cc1 [Luminespib] (partner 0.01 µM)
How it was run: as §1

[3] = compound: NCC(=O)Nc1ccc(-n2nc(C(F)(F)F)cc2-c2ccc3c(ccc4ccccc43)c2)cc1 + O=C(c1cc(Cc2n[nH]c(=O)c3ccccc23)ccc1F)N1CCN(C(=O)C2CC2)CC1 [Olaparib] (partner 8 µM)
How it was run: as §1

[4] = compound: NCC(=O)Nc1ccc(-n2nc(C(F)(F)F)cc2-c2ccc3c(ccc4ccccc43)c2)cc1 + C[C@]1(O)C[C@@H](c2nc(-c3ccc4ccc(-c5ccccc5)nc4c3)c3c(N)nccn32)C1 [Linsitinib] (partner 1 µM)
How it was run: as §1

Row | Cell Line | relative viability ([1]; first compound 0.1 µM) | relative viability ([1]; first compound 1 µM) | relative viability ([1]; first compound 3.162 µM) | relative viability ([2]; first compound 0.02 µM) | relative viability ([2]; first compound 0.06325 µM) | relative viability ([2]; first compound 0.2 µM) | relative viability ([2]; first compound 0.6325 µM) | relative viability ([2]; first compound 2 µM) | relative viability ([3]; first compound 0.02 µM) | relative viability ([3]; first compound 0.06325 µM) | relative viability ([3]; first compound 0.2 µM) | relative viability ([3]; first compound 0.6325 µM) | relative viability ([3]; first compound 2 µM) | relative viability ([4]; first compound 0.02 µM) | relative viability ([4]; first compound 0.06325 µM) | relative viability ([4]; first compound 0.2 µM) | relative viability ([4]; first compound 0.6325 µM) | relative viability ([4]; first compound 2 µM)
1 | NCI-H2342 | 0.858 | 0.782 | 0.649 | 0.626 | 0.875 | 0.75 | 0.75 | 0.688 | 0.623 | 0.477 | 0.434 | 0.447 | 0.422 |  |  |  |  | 
2 | HCC-15 | 0.812 | 0.816 | 0.801 | 0.332 | 0.306 | 0.302 | 0.365 | 0.335 | 0.718 | 0.743 | 0.798 | 0.681 | 0.711 | 0.865 | 0.871 | 0.897 | 0.891 | 0.944
3 | A-427 | 0.864 | 0.969 | 0.932 | 0.886 | 0.849 | 1.06 | 0.864 | 0.996 | 0.701 | 0.742 | 0.679 | 0.776 | 0.781 | 1.12 | 1.17 | 1.16 | 1.02 | 1.03
4 | NCI-H2228 | 0.988 | 0.557 | 0.512 | 0.144 | 0.16 | 0.177 | 0.154 | 0.16 | 0.354 | 0.641 | 0.827 | 0.52 | 0.633 | 0.872 | 0.676 | 0.707 | 0.603 | 0.79
5 | NCI-H1734 | 0.829 | 0.724 | 0.538 | 0.201 | 0.213 | 0.181 | 0.24 | 0.187 | 0.629 | 0.603 | 0.678 | 0.569 | 0.575 | 0.916 | 0.856 | 0.988 | 0.823 | 0.925
6 | PC-14 | 0.857 | 0.755 | 0.633 | 0.146 | 0.154 | 0.19 | 0.218 | 0.182 | 0.308 | 0.45 | 0.317 | 0.388 | 0.306 | 1.07 | 0.917 | 1.05 | 0.936 | 0.993
7 | NCI-H1915 | 0.559 | 0.565 | 0.45 | 0.817 | 0.756 | 0.779 | 0.815 | 0.769 | 0.256 | 0.287 | 0.25 | 0.255 | 0.257 | 1.05 | 1.07 | 1.17 | 1.09 | 1.1
8 | NCI-H1666 | 1.1 | 1.05 | 0.976 | 0.982 | 1.06 | 0.925 | 1.07 | 0.93 | 0.734 | 0.83 | 0.824 | 0.747 | 0.776 | 0.703 | 0.993 | 0.861 | 0.912 | 0.844
9 | HCC-366 | 0.473 | 0.372 | 0.231 |  |  |  |  |  | 0.351 | 0.406 | 0.345 | 0.387 | 0.349 | 0.784 | 0.645 | 0.431 | 0.557 | 0.675
10 | SK-MES-1 | 1.09 | 1.21 | 0.567 | 0.828 | 0.904 | 0.897 | 0.842 | 0.802 | 0.773 | 0.727 | 0.84 | 0.775 | 0.706 | 1.08 | 1.03 | 1.11 | 0.997 | 1.17
11 | SW 1573 | 0.655 | 0.426 | 0.327 | 0.252 | 0.151 | 0.151 | 0.677 | 0.209 | 0.554 | 0.506 | 0.531 | 0.479 | 0.404 | 0.851 | 0.748 | 0.863 | 0.846 | 0.789
12 | NCI-H661 | 0.761 | 0.755 | 0.767 | 0.932 | 0.907 | 0.899 | 0.925 | 0.906 | 0.773 | 0.731 | 0.763 | 0.713 | 0.73 | 0.573 | 0.584 | 0.582 | 0.496 | 0.566
13 | PC-3 [JPC-3] | 0.814 | 0.846 | 0.458 | 0.66 | 0.709 | 0.728 | 0.724 | 0.776 | 1.19 | 1.2 | 1.22 | 1.08 | 1.18 | 0.957 | 0.977 | 0.992 | 0.963 | 0.961
14 | NCI-H1623 |  |  |  | 0.552 | 0.425 | 0.457 | 0.661 | 0.558 |  |  |  |  |  |  |  |  |  | 
15 | Calu-6 |  |  |  |  |  |  |  |  | 0.568 | 0.578 | 0.553 | 0.562 | 0.571 | 0.914 | 0.939 | 1.06 | 0.911 | 0.983
16 | LC-2-ad | 0.726 | 0.698 | 0.71 | 1.01 | 1.05 | 1.12 | 1.11 | 1.14 | 0.676 | 0.801 | 0.728 | 0.719 | 0.698 | 0.996 | 0.94 | 0.876 | 0.852 | 0.897
17 | CAL-12T | 0.767 | 0.663 | 0.564 | 0.54 | 0.22 | 0.531 | 0.536 | 0.463 | 0.761 | 0.735 | 0.659 | 0.711 | 0.765 | 0.718 | 0.836 | 0.865 | 0.775 | 0.819
18 | RERF-LC-KJ | 0.729 | 0.754 | 0.677 | 1.32 | 1.29 | 1.27 | 1.19 | 1.1 | 0.98 | 0.97 | 1.01 | 0.985 | 0.897 | 0.923 | 0.84 | 0.9 | 0.857 | 0.982
19 | NCI-H1650 | 0.656 | 0.569 | 0.425 | 0.202 | 0.229 |  | 0.166 | 0.199 | 0.802 | 0.89 | 0.875 | 0.827 | 0.774 |  |  |  |  | 
20 | BEN | 0.553 | 0.585 | 0.573 | 0.254 | 0.67 | 0.211 | 0.467 | 0.311 | 1 | 1.23 | 0.993 | 1.21 | 1.03 | 0.885 | 1.06 | 0.923 | 0.861 | 0.914
